Reference: publication PMC7782168, “Synthesis, telomerase inhibitory and anticancer activity of new 2-phenyl-4H-chromone derivatives containing 1,3,4-oxadiazole moiety” (Journal of Enzyme Inhibition and Medicinal Chemistry, 2020)

Tests used:
telomerase = biological target: T1, telomerase (Homo sapiens, UniProt O14746); test: Telomerase activity assay using MGC-803 cells extract; type: biochemical; details: mean ± SD
T1 construct: assayed for telomerase activity using MGC-803 cells extract; endogenous in cells; host or cells: MGC-803 cell extract
T1 sequence (O14746 whole entry): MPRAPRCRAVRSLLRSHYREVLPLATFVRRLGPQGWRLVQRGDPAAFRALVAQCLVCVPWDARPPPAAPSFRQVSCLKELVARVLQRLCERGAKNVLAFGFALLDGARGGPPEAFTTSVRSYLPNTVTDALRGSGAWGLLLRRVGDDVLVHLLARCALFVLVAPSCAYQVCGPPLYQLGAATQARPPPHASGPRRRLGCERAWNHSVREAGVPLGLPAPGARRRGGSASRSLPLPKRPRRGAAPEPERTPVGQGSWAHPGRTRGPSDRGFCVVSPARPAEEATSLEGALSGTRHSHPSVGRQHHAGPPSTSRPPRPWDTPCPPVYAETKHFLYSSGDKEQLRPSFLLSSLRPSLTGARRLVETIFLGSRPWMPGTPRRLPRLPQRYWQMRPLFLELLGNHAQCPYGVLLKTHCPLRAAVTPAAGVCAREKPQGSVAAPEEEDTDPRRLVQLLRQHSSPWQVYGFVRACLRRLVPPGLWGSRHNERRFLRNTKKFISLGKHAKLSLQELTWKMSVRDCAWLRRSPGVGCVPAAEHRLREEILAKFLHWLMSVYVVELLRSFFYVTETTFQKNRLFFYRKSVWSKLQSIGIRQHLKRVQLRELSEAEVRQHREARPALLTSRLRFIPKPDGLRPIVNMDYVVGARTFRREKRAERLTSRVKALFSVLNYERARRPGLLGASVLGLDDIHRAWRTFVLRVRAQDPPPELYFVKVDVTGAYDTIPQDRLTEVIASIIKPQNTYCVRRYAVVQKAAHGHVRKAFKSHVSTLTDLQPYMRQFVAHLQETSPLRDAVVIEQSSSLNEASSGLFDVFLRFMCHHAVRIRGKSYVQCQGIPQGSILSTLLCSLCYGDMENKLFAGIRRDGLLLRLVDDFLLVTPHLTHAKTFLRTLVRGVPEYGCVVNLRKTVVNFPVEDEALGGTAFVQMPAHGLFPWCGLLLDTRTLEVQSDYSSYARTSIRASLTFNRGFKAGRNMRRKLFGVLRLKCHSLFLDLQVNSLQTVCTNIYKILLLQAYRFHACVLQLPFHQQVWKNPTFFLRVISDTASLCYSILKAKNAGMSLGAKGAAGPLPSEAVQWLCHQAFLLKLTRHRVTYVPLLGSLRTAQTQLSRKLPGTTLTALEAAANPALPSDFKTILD
T1 sequence (O60832 2-514 partner limits assumed): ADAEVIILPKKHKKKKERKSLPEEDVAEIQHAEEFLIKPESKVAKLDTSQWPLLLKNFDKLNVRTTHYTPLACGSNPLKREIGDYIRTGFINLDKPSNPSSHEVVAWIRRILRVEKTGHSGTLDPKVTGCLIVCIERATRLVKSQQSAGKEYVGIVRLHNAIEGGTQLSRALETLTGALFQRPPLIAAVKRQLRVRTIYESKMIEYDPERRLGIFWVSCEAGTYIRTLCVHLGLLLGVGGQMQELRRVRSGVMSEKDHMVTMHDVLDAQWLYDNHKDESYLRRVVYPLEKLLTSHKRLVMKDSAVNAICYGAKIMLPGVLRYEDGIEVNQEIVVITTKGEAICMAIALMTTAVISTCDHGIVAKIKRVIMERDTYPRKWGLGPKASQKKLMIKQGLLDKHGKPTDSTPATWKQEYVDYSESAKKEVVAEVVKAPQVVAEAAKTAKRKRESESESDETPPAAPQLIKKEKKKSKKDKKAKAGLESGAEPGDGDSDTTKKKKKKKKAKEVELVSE
T1 sequence (Q9NPE3 whole entry partner): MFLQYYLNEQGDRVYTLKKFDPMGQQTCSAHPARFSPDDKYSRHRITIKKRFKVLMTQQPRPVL
T1 sequence (Q9NX24 whole entry partner): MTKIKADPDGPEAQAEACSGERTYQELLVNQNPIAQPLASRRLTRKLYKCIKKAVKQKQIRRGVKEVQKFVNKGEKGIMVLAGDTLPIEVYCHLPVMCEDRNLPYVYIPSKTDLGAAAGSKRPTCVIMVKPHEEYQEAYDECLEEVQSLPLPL
T1 sequence (Q9NY12 whole entry partner): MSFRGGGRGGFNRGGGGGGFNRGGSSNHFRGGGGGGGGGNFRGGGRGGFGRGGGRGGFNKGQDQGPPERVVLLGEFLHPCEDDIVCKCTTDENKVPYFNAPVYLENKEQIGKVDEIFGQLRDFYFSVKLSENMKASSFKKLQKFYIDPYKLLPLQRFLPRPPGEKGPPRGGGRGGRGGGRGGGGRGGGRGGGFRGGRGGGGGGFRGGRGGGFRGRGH

Structure (SMILES) | IC50 (telomerase) | melting point
COc1cc(OC)c2c(=O)c(OCC(=O)Nc3nnc(-c4ccccc4F)o3)c(-c3cc(OC)c(OC)c(OC)c3)oc2c1 [A4, 2–(5,7-dimethoxy-4-oxo-2–(3,4,5-trimethoxyphenyl)-4H-chromen-3-yloxy)-N-(5–(2-fluorophenyl)-1,3,4-oxadiazol-2-yl)acetamide] | 12.1 ± 2.01 µM | 213 to 215 °C
COc1cc(OC)c2c(=O)c(OCC(=O)Nc3nnc(-c4ccccc4Cl)o3)c(-c3cc(OC)c(OC)c(OC)c3)oc2c1 [A7, N-(5–(2-chlorophenyl)-1,3,4-oxadiazol-2-yl)-2–(5,7-dimethoxy-4-oxo-2–(3,4,5-trimethoxyphenyl)-4H-chromen-3-yloxy)acetamide] | 12.5 ± 1.88 µM | 201 to 203 °C
COc1cc(OC)c2c(=O)c(OCC(=O)Nc3nnc(-c4ccccc4Br)o3)c(-c3cc(OC)c(OC)c(OC)c3)oc2c1 [A10, N-(5–(2-bromophenyl)-1,3,4-oxadiazol-2-yl)-2–(5,7-dimethoxy-4-oxo-2–(3,4,5-trimethoxyphenyl)-4H-chromen-3-yloxy)acetamide] | 21 ± 4.09 µM | 199 to 201 °C
COc1cc(OC)c2c(=O)c(OCC(=O)Nc3nnc(-c4ccccc4C)o3)c(-c3cc(OC)c(OC)c(OC)c3)oc2c1 [A13, 2–(5,7-dimethoxy-4-oxo-2–(3,4,5-trimethoxyphenyl)-4H-chromen-3-yloxy)-N-(5-o-tolyl-1,3,4-oxadiazol-2-yl)acetamide] | 25.1 ± 2.01 µM | 205 to 207 °C
COc1cc(OC)c2c(=O)c(OCC(=O)Nc3nnc(-c4ccccc4[N+](=O)[O-])o3)c(-c3cc(OC)c(OC)c(OC)c3)oc2c1 [A15, 2–(5,7-dimethoxy-4-oxo-2–(3,4,5-trimethoxyphenyl)-4H-chromen-3-yloxy)-N-(5–(2-nitrophenyl)-1,3,4-oxadiazol-2-yl)acetamide] | 6.98 ± 0.96 µM | 204 to 206 °C
COc1cc(OC)c2c(=O)c(OCC(=O)Nc3nnc(-c4cccc(C(F)(F)F)c4)o3)c(-c3cc(OC)c(OC)c(OC)c3)oc2c1 [A17, 2–(5,7-dimethoxy-4-oxo-2–(3,4,5-trimethoxyphenyl)-4H-chromen-3-yloxy)-N-(5–(3-(trifluoromethyl)phenyl)-1,3,4-oxadiazol-2-yl)acetamide] | 4.11 ± 0.62 µM | 220 to 222 °C
COc1cc(OC)c2c(=O)c(OCC(=O)Nc3nnc(-c4ccccc4C(F)(F)F)o3)c(-c3cc(OC)c(OC)c(OC)c3)oc2c1 [A18, 2–(5,7-dimethoxy-4-oxo-2–(3,4,5-trimethoxyphenyl)-4H-chromen-3-yloxy)-N-(5–(2-(trifluoromethyl)phenyl)-1,3,4-oxadiazol-2-yl)acetamide] | 1.07 ± 0.2 µM | 191 to 193 °C
COc1cc(OC)c2c(=O)c(OCC(=O)Nc3nnc(-c4ccc(OC(F)(F)F)cc4)o3)c(-c3cc(OC)c(OC)c(OC)c3)oc2c1 [A19, 2–(5,7-dimethoxy-4-oxo-2–(3,4,5-trimethoxyphenyl)-4H-chromen-3-yloxy)-N-(5–(4-(trifluoromethoxy)phenyl)-1,3,4-oxadiazol-2-yl)acetamide] | 1.21 ± 0.29 µM | 230 to 232 °C
COc1cc(OC)c2c(=O)c(OCC(=O)Nc3nnc(-c4ccccc4OC(F)(F)F)o3)c(-c3cc(OC)c(OC)c(OC)c3)oc2c1 [A21, 2–(5,7-dimethoxy-4-oxo-2–(3,4,5-trimethoxyphenyl)-4H-chromen-3-yloxy)-N-(5–(2-(trifluoromethoxy)phenyl)-1,3,4-oxadiazol-2-yl)acetamide] | 5.11 ± 1.1 µM | 202 to 204 °C
COc1cc(OC)c2c(=O)c(OCC(=O)Nc3nnc(-c4cccc5ccccc45)o3)c(-c3cc(OC)c(OC)c(OC)c3)oc2c1 [A28, 2–(5,7-dimethoxy-4-oxo-2–(3,4,5-trimethoxyphenyl)-4H-chromen-3-yloxy)-N-(5-(naphthalen-1-yl)-1,3,4-oxadiazol-2-yl)acetamide] | 6.17 ± 0.99 µM | 238 to 240 °C
COc1cc(OC)c2c(=O)c(OCC(=O)Nc3nnc(-c4ccc5c(c4)OCCO5)o3)c(-c3cc(OC)c(OC)c(OC)c3)oc2c1 [A29, N-(5–(2,3-dihydrobenzo[b][1, 4]dioxin-6-yl)-1,3,4-oxadiazol-2-yl)-2–(5,7-dimethoxy-4-oxo-2–(3,4,5-trimethoxyphenyl)-4H-chromen-3-yloxy)acetamide] | > 60 µM | 231 to 233 °C
COc1cc(OC)c2c(=O)c(OCC(=O)Nc3nnc(-c4cccc(OCc5ccccc5)c4)o3)c(-c3cc(OC)c(OC)c(OC)c3)oc2c1 [A30, N-(5–(3-(benzyloxy)phenyl)-1,3,4-oxadiazol-2-yl)-2–(5,7-dimethoxy-4-oxo-2–(3,4,5-trimethoxyphenyl)-4H-chromen-3-yloxy)acetamide] | > 60 µM | 188 to 190 °C

Next, values leading:

IC50 (telomerase) | melting point | Structure (SMILES)
21.1 ± 2.28 µM | 222 to 224 °C | COc1cc(OC)c2c(=O)c(OCC(=O)Nc3nnc(-c4ccccc4)o3)c(-c3cc(OC)c(OC)c(OC)c3)oc2c1 [A1, 2–(5,7-dimethoxy-4-oxo-2–(3,4,5-trimethoxyphenyl)-4H-chromen-3-yloxy)-N-(5-phenyl-1,3,4-oxadiazol-2-yl)acetamide]
2.57 ± 0.5 µM | 217 to 219 °C | COc1cc(OC)c2c(=O)c(OCC(=O)Nc3nnc(-c4cccc(F)c4)o3)c(-c3cc(OC)c(OC)c(OC)c3)oc2c1 [A3, 2–(5,7-dimethoxy-4-oxo-2–(3,4,5-trimethoxyphenyl)-4H-chromen-3-yloxy)-N-(5–(3-fluorophenyl)-1,3,4-oxadiazol-2-yl)acetamide]
7.35 ± 1.01 µM | 206 to 208 °C | COc1cc(OC)c2c(=O)c(OCC(=O)Nc3nnc(-c4cccc(Cl)c4)o3)c(-c3cc(OC)c(OC)c(OC)c3)oc2c1 [A6, N-(5–(3-chlorophenyl)-1,3,4-oxadiazol-2-yl)-2–(5,7-dimethoxy-4-oxo-2–(3,4,5-trimethoxyphenyl)-4H-chromen-3-yloxy)acetamide]
1.22 ± 0.29 µM | 234 to 236 °C | COc1cc(OC)c2c(=O)c(OCC(=O)Nc3nnc(-c4ccc(Br)cc4)o3)c(-c3cc(OC)c(OC)c(OC)c3)oc2c1 [A8, N-(5–(4-bromophenyl)-1,3,4-oxadiazol-2-yl)-2–(5,7-dimethoxy-4-oxo-2–(3,4,5-trimethoxyphenyl)-4H-chromen-3-yloxy)acetamide]
2.01 ± 0.39 µM | 202 to 204 °C | COc1cc(OC)c2c(=O)c(OCC(=O)Nc3nnc(-c4cccc(Br)c4)o3)c(-c3cc(OC)c(OC)c(OC)c3)oc2c1 [A9, N-(5–(3-bromophenyl)-1,3,4-oxadiazol-2-yl)-2–(5,7-dimethoxy-4-oxo-2–(3,4,5-trimethoxyphenyl)-4H-chromen-3-yloxy)acetamide]
2.35 ± 0.48 µM | 225 to 227 °C | COc1cc(OC)c2c(=O)c(OCC(=O)Nc3nnc(-c4ccc(C)cc4)o3)c(-c3cc(OC)c(OC)c(OC)c3)oc2c1 [A11, 2–(5,7-dimethoxy-4-oxo-2–(3,4,5-trimethoxyphenyl)-4H-chromen-3-yloxy)-N-(5-p-tolyl-1,3,4-oxadiazol-2-yl)acetamide]
15.3 ± 2.85 µM | 197 to 199 °C | COc1cc(OC)c2c(=O)c(OCC(=O)Nc3nnc(-c4cccc(C)c4)o3)c(-c3cc(OC)c(OC)c(OC)c3)oc2c1 [A12, 2–(5,7-dimethoxy-4-oxo-2–(3,4,5-trimethoxyphenyl)-4H-chromen-3-yloxy)-N-(5-m-tolyl-1,3,4-oxadiazol-2-yl)acetamide]
4.11 ± 0.6 µM | 233 to 235 °C | COc1cc(OC)c2c(=O)c(OCC(=O)Nc3nnc(-c4cccc([N+](=O)[O-])c4)o3)c(-c3cc(OC)c(OC)c(OC)c3)oc2c1 [A14, 2–(5,7-dimethoxy-4-oxo-2–(3,4,5-trimethoxyphenyl)-4H-chromen-3-yloxy)-N-(5–(3-nitrophenyl)-1,3,4-oxadiazol-2-yl)acetamide]
9.11 ± 1.88 µM | 239 to 241 °C | COc1ccc(-c2nnc(NC(=O)COc3c(-c4cc(OC)c(OC)c(OC)c4)oc4cc(OC)cc(OC)c4c3=O)o2)cc1 [A22, 2–(5,7-dimethoxy-4-oxo-2–(3,4,5-trimethoxyphenyl)-4H-chromen-3-yloxy)-N-(5–(4-methoxyphenyl)-1,3,4-oxadiazol-2-yl)acetamide]
1.9 ± 0.42 µM | 208 to 210 °C | COc1cccc(-c2nnc(NC(=O)COc3c(-c4cc(OC)c(OC)c(OC)c4)oc4cc(OC)cc(OC)c4c3=O)o2)c1 [A23, 2–(5,7-dimethoxy-4-oxo-2–(3,4,5-trimethoxyphenyl)-4H-chromen-3-yloxy)-N-(5–(3-methoxyphenyl)-1,3,4-oxadiazol-2-yl)acetamide]
4.01 ± 0.47 µM | 228 to 230 °C | COc1cc(OC)c2c(=O)c(OCC(=O)Nc3nnc(-c4ccc(F)c(Cl)c4)o3)c(-c3cc(OC)c(OC)c(OC)c3)oc2c1 [A24, N-(5–(3-chloro-4-fluorophenyl)-1,3,4-oxadiazol-2-yl)-2–(5,7-dimethoxy-4-oxo-2–(3,4,5-trimethoxyphenyl)-4H-chromen-3-yloxy)acetamide]
> 60 µM | 222 to 224 °C | COc1cc(OC)c2c(=O)c(OCC(=O)Nc3nnc(-c4ccc(Cl)c(Cl)c4)o3)c(-c3cc(OC)c(OC)c(OC)c3)oc2c1 [A25, N-(5–(3,4-dichlorophenyl)-1,3,4-oxadiazol-2-yl)-2–(5,7-dimethoxy-4-oxo-2–(3,4,5-trimethoxyphenyl)-4H-chromen-3-yloxy)acetamide]
1.06 ± 0.11 µM | 198 to 200 °C | COc1cc(OC)cc(-c2nnc(NC(=O)COc3c(-c4cc(OC)c(OC)c(OC)c4)oc4cc(OC)cc(OC)c4c3=O)o2)c1 [A26, 2–(5,7-dimethoxy-4-oxo-2–(3,4,5-trimethoxyphenyl)-4H-chromen-3-yloxy)-N-(5–(3,5-dimethoxyphenyl)-1,3,4-oxadiazol-2-yl)acetamide]
2.75 ± 0.19 µM | 240 to 242 °C | COc1cc(OC)c2c(=O)c(OCC(=O)Nc3nnc(-c4ccco4)o3)c(-c3cc(OC)c(OC)c(OC)c3)oc2c1 [A31, 2–(5,7-dimethoxy-4-oxo-2–(3,4,5-trimethoxyphenyl)-4H-chromen-3-yloxy)-N-(5-(furan-2-yl)-1,3,4-oxadiazol-2-yl)acetamide]
